The text below walks through data of PubChem BioAssay AID1918937 (Molecular Pharmacology Branch, DTP, NCI, 2023).

A word on the viability, T/C: it is the result in the treated group divided by that in the control group, in per cent. Usually IC50 stands for the point on the concentration scale where inhibition reaches its midpoint.

Where “and” joins values, the source holds several entries; their conditions need not be identical. Equal values may be shown once. Where only a bound is given, the exact number is not on record here.

This experiment relates to 521955-158-R2-J5-PDC complex spheroid viability. Kind of experiment: Anticancer human tumor 521955-158-R2-J5-PDC patient-derived pancreatic carcinoma cell line growth inhibition. The following applies: for viability, T/C: stronger effect = lower value. The source says:
Multicellular complex tumor spheroid response to LSD1 Inhibitor Iadademstat in combination with a variety of drugs and investigational agents in selected tumor cell lines
The current study was undertaken to assess response to LSD1 inhibitors in combination with standard-of-care drugs and investigational agents in solid tumor complex spheroid models as well as in the K-562 leukemia. Complex spheroids include a stromal component modeled by human endothelial cells (HUVEC) and fibroblasts modeled by human mesenchymal stem cells (MSCs). The concentration ranges selected for each drug and investigational agent were based upon clinically achievable concentrations if the clinical Cmax of the agent was known.
Compounds. The drugs and investigational agents used in this study are listed on Table 1. All of the agents used, including staurosporine (NSC755774) and gemcitabine (NSC613327), were obtained from the Developmental Therapeutics Program, NCI. FDA-approved anticancer drugs are available from the NCI at http://dtp.nci.nih.gov/branches/dscb/oncology_drugset_explanation.html. Drugs and investigational agents were >95% pure by proton nuclear magnetic resonance (NMR) and liquid chromatography/mass spectrometry (LC/MS). Stock solutions were prepared at 400x in DMSO, stored at -70 degrees C, and diluted in fresh medium prior to their use. The final concentration of DMSO in cell culture wells never exceeded 0.25% (v/v). The FDA-approved anticancer drug set is available from the Developmental Therapeutics Program at https://dtp.cancer.gov/organization/dscb/obtaining/available_plates.htm. All drugs and investigational agents were tested over a range starting from a high concentration at or near the clinical Cmax and decreasing in half-log increments. If the clinical Cmax for an agent had not been determined, the highest concentration tested was 10 microM.
Cell Lines. The patient-derived cancer cell (PDC) lines: 292921-168-R-J2-PDC, K24384-001-R-PDC, and 521955-158-R2-J5-PDC pancreatic carcinomas, 556581-035-R-J1 ovarian carcinoma, 324938-238-R-J1-PDC, 855422-203-R-J1-PDC and 883617-216-R-J1-PDC urothelial bladder carcinomas, 743489-274-T-PDC renal cell carcinoma, 138582-R-J1 Merkel cell tumor, K60290-347-R-J1 and K57222-313-R-J1-PDC glioblastomas, 653999-131-R-J2-PDC, LG0703-F948-PDC, and 349418-098-R-PDC non-small cell lung carcinomas, 885512-296-R-J2-PDC, 171881-019-R-J1-PDC breast carcinomas and 186277-243-T-J2-PDC and 233499-124-R-J2-PDC colon carcinomas were obtained from the NCI Patient-Derived Models Repository (PDMR, https://pdmr.cancer.gov). The established cell lines NCI/ADR-RES (RRID:CVCL_14520 and OVCAR-5 (RRID:CVCL_1628) ovarian carcinomas, 786-O (RRID:CVCL_1051) and A498 (RRID:CVCL_A498) renal cell carcinoma, NCI-H211 (ATCC, cat. CRL-5824; RRID:CVCL_1529), NCI-H196 (ATCC, cat. CRL-5823, RRID:CVCL_1509), SW 1271 (ATCC, cat. CRL-2177, RRID:CVCL_1716) and NCI-H1876 (ATCC, cat. CRL-5902, RRID:CVCL_1503) small cell lung carcinomas, MDA-MB-231 (RRID:CVCL_0062) and MDA-MB-468 (RRID:CVCL_0419)breast carcinomas (10-12). Pooled donor human umbilical vein endothelial cells (HUVEC, Lonza, cat. CC-2519) and human mesenchymal stem cells (hMSC, Lonza, cat. PT-2501) were purchased from Lonza (Walkersville, MD).
Cell Culture. All cells were maintained in an incubator at 37 degrees C and 5% CO2 with 95% humidity. The PDC lines were cultured according to standard operating procedures established by the NCI PDMR (https://pdmr.cancer.gov). Briefly all PDCs were thawed and cultured in Matrigel-coated flasks prepared with a working solution of 1X Ham's F-12 nutrient mix, without supplementation (Invitrogen, Waltham, MA, cat. 11765054), 100 U/mL penicillin-streptomycin (Invitrogen, cat. 15140122), and 2.5% Matrigel (Corning Inc., Corning, NY, cat. 354248) for the first three passages. […]
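Also: spheroids exposed to agents for seven days.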
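For viability, T/C in this document: percent of DMSO vehicle control luminescence viability.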

Consider `CC(C)c1c(-c2ccccc2)nc2c(C#N)c[nH]n2c1=O`, for which the viability, T/C is 104% and 98.1% (compound 0.0316 µM); 108% and 97.9% (compound 0.1 µM); 105% and 104% (compound 0.316 µM); 101% and 86.4% (compound 1 µM); 102% and 94.2% (compound 3.16 µM); 86.5% and 85.9% (compound 10 µM). Also, the IC50 (curve of compound) is over 10000 nM.
As for `CC1COCCN1c1cc(C2(S(C)(=N)=O)CC2)nc(-c2ccnc3[nH]ccc23)n1` (stereo not given), the viability, T/C by setting is: (compound 0.0316 µM) 108% and 112%; (compound 0.1 µM) 102% and 100%; (compound 0.316 µM) 94.3% and 111%; (compound 1 µM) 13.1% and 18.6%; (compound 3.16 µM) 9.05% and 12.5%; (compound 10 µM) 13.5% and 17.8%. For the setting “curve of compound”, the IC50 was 593 nM and 655 nM.
For the molecule `COc1ccc([C@@H](O)c2cc(-c3ncnc4cc(N5CCOCC5)ccc34)c(F)cc2Cl)nn1`, the viability, T/C is 99.8% and 97.6% (compound 0.0316 µM); 87% and 104% (compound 0.1 µM); 73.6% and 84.4% (compound 0.316 µM); 57.1% and 63.2% (compound 1 µM); 38.6% and 57.8% (compound 3.16 µM); 22.4% and 24.5% (compound 10 µM). Further, where the note is “curve of compound”, the IC50 was 1550 nM and 3390 nM.
With `NC1CC1c1ccc(-c2cccc(O)c2)cc1` (stereo not given), under “compound 0.1 µM”, the viability, T/C was 78.3%. Where the note is “compound alone, run of 02/21/2022”, the IC50 was over 10000 nM.
For `NC1CCC(NC2CC2c2ccccc2)CC1` (stereo not given), the viability, T/C (compound 0.316 µM) was 92.2% [middle of 4 runs]. The IC50 (compound alone, run of 02/15/2022) is over 10000 nM.
`Nc1ncn(C2CC(O)C(CO)O2)c(=O)n1` (stereo not given) + NC1CC1c1ccc(-c2cccc(O)c2)cc1: the IC50 is over 1000 nM (curve of first compound, second compound 0.1 µM); over 1000 nM (curve of first compound, second compound 0.316 µM); over 1000 nM (curve of first compound, second compound 1 µM); over 1000 nM (curve of first compound, second compound 3.16 µM); over 1000 nM (curve of first compound, second compound 10 µM). Further, the viability, T/C by setting is: (second compound 0.1 µM, first compound 0.00316 µM) 89.9%; (second compound 0.1 µM, first compound 0.01 µM) 81.6%; (second compound 0.1 µM, first compound 0.0316 µM) 83.7%; (second compound 0.1 µM, first compound 0.1 µM) 76.3%; (second compound 0.1 µM, first compound 0.316 µM) 58.7%; (second compound 0.1 µM, first compound 1 µM) 52.4%. For the same molecule, the viability, T/C reads like this: (second compound 0.316 µM, first compound 0.00316 µM) 78.3%; (second compound 0.316 µM, first compound 0.01 µM) 89.6%; (second compound 0.316 µM, first compound 0.0316 µM) 101%; (second compound 0.316 µM, first compound 0.1 µM) 73.4%; (second compound 0.316 µM, first compound 0.316 µM) 65.5%; (second compound 0.316 µM, first compound 1 µM) 53.1%. Moreover, the viability, T/C is 84.1% (second compound 1 µM, first compound 0.00316 µM); 91.2% (second compound 1 µM, first compound 0.01 µM); 86.6% (second compound 1 µM, first compound 0.0316 µM); 76.9% (second compound 1 µM, first compound 0.1 µM); 68.8% (second compound 1 µM, first compound 0.316 µM); 59.8% (second compound 1 µM, first compound 1 µM). Moreover, the viability, T/C (second compound 3.16 µM, first compound 0.00316 µM) was 80.9%; the viability, T/C (second compound 3.16 µM, first compound 0.01 µM) was 83.9%; the viability, T/C (second compound 3.16 µM, first compound 0.0316 µM) was 82.2%; the viability, T/C (second compound 3.16 µM, first compound 0.1 µM) was 79%; the viability, T/C (second compound 3.16 µM, first compound 0.316 µM) is 76%; the viability, T/C (second compound 3.16 µM, first compound 1 µM) was 65.1%. The viability, T/C by setting is: (second compound 10 µM, first compound 0.00316 µM) 87.7%; (second compound 10 µM, first compound 0.01 µM) 94%; (second compound 10 µM, first compound 0.0316 µM) 95.9%; (second compound 10 µM, first compound 0.1 µM) 80.7%; (second compound 10 µM, first compound 0.316 µM) 75.5%; (second compound 10 µM, first compound 1 µM) 67.4%.
